# Source: paper PMC10360056, “Chemical Evolution of Amphiphilic Xenopeptides for Potentiated Cas9 Ribonucleoprotein Delivery” (Journal of the American Chemical Society, 2023)
# Experiments:
# HeLa eGFP/tub cells = experiment: eGFP knockout study by Cas9 RNP nanocarriers, flow cytometry; format: cell-based; conditions: 48 h treatment
# Method: (§1) HeLa WT, HeLa eGFP/tub, HeLa GFPd2 (destabilized eGFP), CT26 eGFP/luc and N2a eGFP/luc cells were grown in DMEM medium supplemented with 10 % FBS, 100 U/mL penicillin, and 100 μg/mL streptomycin. The cells were cultured in ventilated flasks in the cell incubator at 37 °C and 5 % CO2 in a humidified atmosphere. The cells were passaged at a confluency of […]
# (§2) Cells were harvested and resuspended in 600 μL of FACS buffer (PBS buffer containing 10 % FBS). The samples were ana-lyzed by flow cytometry on a CytoFLEX S flow cytometer (Beckman Coulter, CA, USA). For eGFP knockout and cellular uptake experiments, 0.6 μL of 1 μg/μL DAPI was added to each sample for differentiating live and dead cells before the measurement. The DAPI signal and BFP fluorescence were detected with 405 nm excitation and 450 nm emission. The eGFP and ATTO488 fluorescence was assayed with 488 nm excitation and 530 nm emission. The ATTO647N fluorescence was assayed with 640 nm excitation and 670 nm emission. Ten thousand of isolated live cells were counted and evaluated. The data were analyzed using FlowJo 7.6.5 by FlowJo, LLC (Becton, Dickinson and Company, USA). […]
# (§3) Endosomal escape of Cas9 RNP nanocarriers […]
# (§4) Next, the […]
# (§5) cells were washed twice with PBS and then fixed with 4 % PFA at RT for 40 min. Afterwards, the cells were washed and incubated with 2 µg/mL DAPI (for staining cell nuclei) for 30 min. Then, the staining solution was removed and 300 μL fresh PBS were added. The slides w ere stored at 4 °C in the dark until the measurement. […]
# (§6) Then, the image was conv erted into 8-bit type. The mRuby3/gal8 spots were further determined by Threshold tool, and the number of the spots in the cell cytosol per cell were counted by Analyze Particles tool.
# One day prior to the treatments, HeLa eGFP/tub cell s were seeded into 96 -well plates at a density of 5000 cells/well. On the next day, the medium was replaced with 80 μL of fresh medium. 20 μL of Cas9 RNP nanocarriers were added to each well resulting in a series of concentrations of RNP (100, 75, 50, 25, 10, 5, 2.5, 1, 0.5, and 0.1 nM). Lipofectamine CRISPRMAX was tested at the same concentrations of RNP with the preparation procedures as recommended by the manufacturer. The cells were incubated for 48 h. Afterwards, the cells were trypsinized and transfer red to 24-well plates, and incubated for another 72 h. Then, the cells were harvested and prepared for flow cytometry analysis. All experiments were performed in triplicate. eGFP to BFP conversion (HDR) study
# One day prior to the treatments, HeLa GFPd2 cel ls were seeded into 96 -well plates at a density of 5000 cells/well. On the next day, the medium was replaced with 80 μL of fresh medium. 20 μL of Cas9 RNP/ssDNA nanocarriers containing different molar ratios of RNP/ssDNA were added to each well resulting i n a series of concentrations of RNP (100, 75, 50, 25, 10, 5, 2.5, 1, 0.5, and 0.1 nM). Lipofectamine CRISPRMAX was tested at the same concentrations of RNP and ssDNA with the prepara-tion procedures as recommended by the manufacturer. The cells were incubat ed for 48 h. Afterwards, the cells were trypsinized and transferred to 24 -well plates, and incubated for another 72 h. Then, the cells were harvested and prepared for flow cytom-etry analysis. […]
# Half maximal effective concentration (EC50) values were calculated by GraphPad prism 5. […] All other data were analyzed with GraphPad prism 5 and presented as arithmetic mean ± standard deviation (SD) of at least triplicates. […]
# HeLa GFPd2 cells = experiment: eGFP to BFP conversion (HDR) study, Cas9 RNP/ssDNA co-delivery; format: cell-based; conditions: for HDR: RNP/ssDNA 1/4, 48 h
# Method: as §1, §2, §3, §4, §5, §6
# One day prior to the treatments, HeLa eGFP/tub cell s were seeded into 96 -well plates at a density of 5000 cells/well. On the next day, the medium was replaced with 80 μL of fresh medium. 20 μL of Cas9 RNP nanocarriers were added to each well resulting in a series of concentrations of RNP (100, 75, 50, 25, 10, 5, 2.5, 1, 0.5, and 0.1 nM). […]
# CT26 eGFP/luc cells = experiment: eGFP knockout in CT26 eGFP/luc cells; format: cell-based, murine; conditions: 1 nM RNP, 48 h treatment
# Method: as §1, §2, §3
# (§7) Then, the image was conv erted into 8-bit type. The mRuby3/gal8 spots were further determined by Threshold tool, and the number of the spots in the cell cytosol per cell were counted by Analyze Particles tool. […]
# N2a eGFP/luc cells = experiment: eGFP knockout in N2a eGFP/luc cells; format: cell-based, murine; conditions: 1 nM RNP, 48 h treatment
# Method: as §1, §2, §3, §7
# HeLa WT cells = experiment: Endocytosis pathway study with inhibitors; format: cell-based; conditions: 1 mM amiloride 2 h, 75 nM RNP, 4 h, flow cytometry
# Method: sgRNA amount in naked Cas9/sgRNA ribonucleoproteins (Cas9 RNPs) or Cas9 RNP nanocarriers were determined using a Quant-iTTM RiboGreen® RNA assay kit (Invitrogen, CA, USA). 50 μL of naked Cas9 RNPs or Cas9 RNP nanocarriers con-taining 250 ng Cas9 protein and 50 ng sgRNA were mixed with 50 μL of TE buffer and were added to the 96-well plate. The plate was incubated for 10 min. Afterwards, 100 μL of Ribogreen solution (diluted 1:100 in TE buffer) was added to each well.
# The plate was incubated for another 5 min. Ribogreen fluorescence intensity was detected using a microplate reader (Spectra-fluor Plus, Tecan, Männedorf, Switzerland) with excitation and emission wavelength of 485 and 528 nm, respectively. […]
# Cells were harvested and resuspended in 600 μL of FACS buffer (PBS buffer containing 10 % FBS). […] The DAPI signal and BFP fluorescence were detected with 405 nm excitation and 450 nm emission. The eGFP and ATTO488 fluorescence was assayed with 488 nm excitation and 530 nm emission. The ATTO647N fluorescence was assayed with 640 nm excitation and 670 nm emission. Ten thousand of isolated live cells were counted and evaluated. The data were analyzed using FlowJo 7.6.5 by FlowJo, LLC (Becton, Dickinson and Company, USA).
# Cell viability was determined using an MTT assay. […]
# Cellular uptake of Cas9 RNP nanocarriers was evaluated by flow cytometry and confocal laser scanning microscopy (CLSM). […]
Structure (SMILES),eGFP knockout (disruption) (HeLa eGFP/tub cells; 0.5 nM (500 pM) RNP) [%],"eGFP knockout (HeLa eGFP/tub cells; 1 nM RNP, N/P 24) [%]",eGFP knockout (HeLa eGFP/tub cells; RNP concentrations down to 5 nM),"HDR (HeLa GFPd2 cells; HeLa GFPd2, 0.5 nM RNP) [%]","HDR (HeLa GFPd2 cells; HeLa GFPd2, 1 nM RNP) [%]","HDR efficiency (HeLa GFPd2 cells; HeLa GFPd2, 10 nM RNP, RNP/ssDNA ratio 1/8, N/P 12, 48 h) [%]",eGFP knockout (CT26 eGFP/luc cells) [%],eGFP knockout (N2a eGFP/luc cells) [%],Cas9 RNP uptake after pretreatment with amiloride (macropinocytosis) (HeLa WT cells)
CCCCC/C=C\C/C=C\CCCCCCCC(=O)NCCCC[C@H](NC(=O)CCCCCCC/C=C\C/C=C\CCCCC)C(=O)NCCCC[C@H](NC(=O)CN(CC(=O)NCCNCCNCCNCCNC(=O)[C@H](Cc1ccc(O)cc1)NC(=O)[C@H](Cc1ccc(O)cc1)NC(=O)[C@H](Cc1ccc(O)cc1)NC(=O)[C@@H](N)CCCCN=[N+]=[N-])CC(F)(F)F)C(=O)NCCNCCNCCNCCNC(=O)CN(CC(=O)N[C@@H](Cc1ccc(O)cc1)C(=O)N[C@@H](Cc1ccc(O)cc1)C(=O)N[C@@H](Cc1ccc(O)cc1)C(=O)O)CC(F)(F)F [TFE-IDAtp1-LinA],~61,~88,up to 99%,~11,~23,~28,~55,13.4,
CCCCC/C=C\C/C=C\CCCCCCCC(=O)NCCCC[C@H](NC(=O)CCCCCCC/C=C\C/C=C\CCCCC)C(=O)NCCCC[C@H](NC(=O)CCC(=O)NCCNCCNCCNCCNC(=O)[C@H](Cc1ccc(O)cc1)NC(=O)[C@H](Cc1ccc(O)cc1)NC(=O)[C@H](Cc1ccc(O)cc1)NC(=O)[C@@H](N)CCCCN=[N+]=[N-])C(=O)NCCNCCNCCNCCNC(=O)CCC(=O)N[C@@H](Cc1ccc(O)cc1)C(=O)N[C@@H](Cc1ccc(O)cc1)C(=O)N[C@@H](Cc1ccc(O)cc1)C(=O)O [Stp1-LinA],,~80,,,,,,,blocked
